Broadly, the IC50 is the concentration needed to halve the response being measured. What is called pIC50 is −log10 of the IC50, conventionally taken in molar units. The Ki is the equilibrium dissociation constant of an inhibitor or competing ligand from its target. As a reminder, the pKi is the negative decadic logarithm of the Ki, by convention in mol/L.

Experimental findings from ChEMBL document CHEMBL3739293, “Synthesis of unusual isoxazoline containingand-dipeptides as potential glutamate receptor ligands” (Medchemcomm, 2015) are described below.

Assay [1] can be described thus: Displacement of [3H]AMPA from AMPA receptor in Sprague-Dawley rat brain synaptic membrane.
Assay [2] is described as follows: Displacement of [3H]KA from KA receptor in Sprague-Dawley rat brain synaptic membrane.
The next assay deals with Glutamate NMDA receptor. Put plainly: Displacement of [3H]CGP39653 from NMDA receptor in Sprague-Dawley rat brain synaptic membrane. (Loss of bound radioactivity is the signal in a displacement assay; it reports binding, not function.)

In assay [1], `N[C@@H](CCC(=O)N1C[C@@H]2ON=C(O)[C@@H]2C1)C(=O)O` displayed an IC50 of 43 µM and a pIC50 of 4.37. In assay [2], the IC50 is 37 µM and the pIC50 is 4.43. For the same molecule, at Glutamate NMDA receptor, the Ki came to 25 µM and the pKi came out at 4.63.
For the molecule `N[C@H](CCC(=O)N1C[C@@H]2C(C(=O)O)=NO[C@@H]2C1)C(=O)O`, the IC50 in assay [1] is more than 100 µM. In assay [2], this molecule showed an IC50 of more than 100 µM. Further, on Glutamate NMDA receptor, the Ki came to 58 µM and the pKi was 4.24.
`N[C@@H](CCC(=O)N1C[C@@H]2ON=C(C(=O)O)[C@@H]2C1)C(=O)O`: in assay [1], the half-maximal inhibitory concentration (IC50) is 46 µM and the pIC50 is reported as 4.34. Besides, in assay [2], the IC50 was determined as 66 µM and the pIC50 came out at 4.2. Moreover, on Glutamate NMDA receptor, the affinity corresponds to a Ki of 24 µM and the pKi is 4.64.
For the molecule `N[C@H](CCC(=O)N1C[C@@H]2C(O)=NO[C@@H]2C1)C(=O)O`, the IC50 in assay [1] and in assay [2] was more than 100 µM each time. In addition, the Ki on Glutamate NMDA receptor was more than 100 µM.
In assay [1], `N[C@H](CCC(=O)N1C[C@@H]2ON=C(C(=O)O)[C@@H]2C1)C(=O)O` (single isomer, unassigned) came in with an IC50 of 67 µM and a pIC50 of 4.18. In assay [2], this molecule returned a half-maximal inhibitory concentration (IC50) of 56 µM and a pIC50 of 4.25. On Glutamate NMDA receptor, the Ki came to 28 µM and the pKi is 4.56.
On to `N[C@@H](CCC(=O)N1C[C@@H]2C(C(=O)O)=NO[C@@H]2C1)C(=O)O` (single isomer, unassigned), for which, in assay [1], the IC50 came out at 34 µM and the pIC50 was found to be 4.48. In assay [2], this molecule yielded an IC50 of 40 µM and a pIC50 of 4.39. At Glutamate NMDA receptor, the Ki came to 21 µM and the pKi is 4.68.
Turning to `N[C@H](CCC(=O)N1C[C@@H]2ON=C(O)[C@@H]2C1)C(=O)O` (single isomer, unassigned), the IC50 in assay [1] and in assay [2] was more than 100 µM each time. The same molecule displayed a Ki at Glutamate NMDA receptor of more than 100 µM.
In assay [1], `N[C@@H](CCC(=O)N1C[C@@H]2C(O)=NO[C@@H]2C1)C(=O)O` (single isomer, unassigned) yielded an IC50 of 48 µM and a pIC50 of 4.36. In assay [2], this molecule returned an IC50 of 59 µM and a pIC50 of 4.23. On Glutamate NMDA receptor, this molecule showed a Ki of 41 µM and a negative-log Ki (pKi) of 4.41.
